Values after ≈ are worked out from the molar mass of the structure shown. Where two headings read alike, the source gives them in different places.
Assays:
[1] = Solubility of drug substances in liquid carbon dioxide and dimethyl ether (HPLC or gravimetric); assay type: physicochemical
Method: A comparison of solubilities of a number of pharmaceutical drug substances was performed as follows:
Approximately 3-5 g of the drug product was slightly compressed in a uniaxial press to avoid the formation of a stable suspension. The so compressed powder was placed in a pressure chamber with a sapphire glass (30 ml volume). The temperature of the pressure chamber was controlled by water bath. Then the pressure in the chamber was increased using the corresponding gas and equilibrated for 1-3 hours. After equilibration a 1.0 ml sample was drawn under constant pressure and temperature conditions using a high pressure line with a defined volume. […] The sample container was afterwards rinsed with the same liquid to collect the residues of the substance in the sample container.

[2] = Particle size distribution of THL by laser diffraction, influence of the spraying time (Example 2); assay type: physicochemical; settings: for Dv 0.1 / Dv 0.5 / Dv 0.9: CO2 200 bar, 40° C., Brij 96
From the text: (§1) The particle size distribution of very small particles of approximately 1 μm is difficult to determine accurately. Two commonly used methods are photon correlation spectroscopy (PCS) and laser diffraction. Photon correlation spectroscopy is commonly used for characterization of submicron suspensions and emulsions. Due to the principle of the measurement, movement of particles, particles larger than 3 to 5 μm cannot be seen with this method. With laser diffraction small particles, >0.1 μm, as well as larger particles, up to 2 mm, can be characterized in parallel. The diffraction of the light is thereby measured at small diffraction angles. For very small particles the method tends to overestimate the particle size due to transmission of light through the particles.
(§2) Formation of fractions of coarse particles was observed especially after clogging of the nozzle, e.g. expansion of a compound dissolved in a compressed gas without modifier. To be able to detect the presence of coarse particles, laser diffraction was chosen to characterize the whole suspension. With its wide dynamic range, laser diffraction allows the detection of particles up to 2 mm that cannot be seen by the PCS method. Since laser diffraction tends to overestimate the particle size (FIGS. 2, 3), all the particle sizes determined by laser diffraction can be considered as too large.
150 g of solid THL and 75 g Brij 96 in a container with two sinter plates was charged into an autoclave having a volume of 6 liter. The autoclave was kept at a temperature of 40° C. with a water bath. Then the autoclave was filled with CO2 up to a pressure of 200 bar and equilibrated for 90 min.
The autoclave was connected to a second autoclave via a heated high pressure line, kept at 40° C. […] The dissolved THL was sprayed into 1.25 liter of an aqueous solution of Brij 96 (0.06%=1 CMC) in this second autoclave. The pressure of the first autoclave was kept constant at 200 bar by pumping in additional gas.
After 90, 150, and 180 minutes of spraying, a sample for particle size distribution was drawn. After 180 min the whole amount of THL/Brij was removed from the first container (≈12% THL in the final suspension).

[3] = Particle size distribution of Saquinavir by laser diffraction, influence of the pressure in the first container (Example 3); assay type: physicochemical; settings: DME, Aerosol OT, 40° C.
From the text: as §1, §2
The autoclave was kept at a temperature of 40° C. with a water bath. Then the autoclave was filled with DME up to different pressures and equilibrated for 90 min.
The autoclave was connected to a second autoclave via a heated high pressure line, kept at 25° C., 5 bar. […] The pressure of the first autoclave was kept constant by pumping in additional gas.
The nozzle diameter was 0.1 mm. As commonly known a further decrease of particle size can be obtained by decrease of the nozzle diameter.

[4] = From the text: as §1
To be able to detect the presence of coarse particles, laser diffraction was chosen to characterize the whole suspension. With its wide dynamic range, laser diffraction allows the detection of particles up to 2 mm that cannot be seen by the PCS method.
The autoclave was kept at a temperature of 40° C. with a water bath. Then the autoclave was filled with DME up to 200 bar and equilibrated for 90 min.
The autoclave was connected to a second autoclave via a heated high pressure line, kept at 25° C., at 5 bar. […] The pressure of the first autoclave was kept constant by pumping in additional gas.

[5] = Particle size distribution of Saquinavir by Photon Correlation Spectroscopy (FIG. 2); assay type: physicochemical; settings: batch no. 1051/30, Angle 90
From the text: as §1

[6] = liquid co2, organic solvent or mixture, CO2, 45° C./200 bar, read-out: solubility (CO2)
[7] = organic solvent or mixture, dimethyl ether, 45° C./200 bar, read-out: solubility (DME)
[8] = pressure l00 bar (so in the source)
[9] = surfactant Brij 96, DME 200 bar, 40° C.

COc1ccccc1Oc1c(NS(=O)(=O)c2ccc(C(C)(C)C)cc2)nc(-c2ncccn2)nc1OCCO [Bosentan] gave a solubility [1, 6] of less than 1 mg/mL and a solubility [1, 7] of 90 mg/mL (≈ 163 mM).
CC1=C(/C=C/C(C)=C/C=C/C(C)=C\C(=O)O)C(C)(C)CCC1 [Isotretionin] showed a solubility [1, 6] of 3 mg/mL (≈ 9.99 mM) and a solubility [1, 7] of 60 mg/mL (≈ 200 mM).
In the case of O=C(NCCN1CCOCC1)c1ccc(Cl)cc1 [Moclobemide], the solubility [1, 6] is reported as 3.5 mg/mL (≈ 13 mM) and the solubility [1, 7] is reported as 37 mg/mL (≈ 138 mM).
For CCCCCCCCCCC[C@@H](C[C@@H]1OC(=O)[C@H]1CCCCCC)OC(=O)[C@H](CC(C)C)NC=O [Orlistat, Tetrahydrolipstatin], the solubility ([1]; organic solvent or mixture, dimethyl ether, 20° C./4.5 bar, read-out: solubility (DME)) was 178 mg/mL (≈ 359 mM), the solubility ([1]; organic solvent or mixture, liquid CO2, 30° C./100 bar, read-out: solubility (CO2)) was 6 mg/mL (≈ 12.1 mM) and the “resulting particle size distribution” value ([2]; over the whole trial (up to 180 min spraying)) was “kept almost constant over the whole trial”. The “Dv 0.1” value ([2]; spraying time 90 min) was 0.6 μm, the “Dv 0.5” value ([2]; spraying time 90 min) was 1.4 μm and the “Dv 0.9” value ([2]; spraying time 90 min) was 2.9 μm. For the same compound, the “Dv 0.1” value ([2]; spraying time 150 min) was 0.4 μm, the “Dv 0.5” value ([2]; spraying time 150 min) was 1.5 μm and the “Dv 0.9” value ([2]; spraying time 150 min) was 3.5 μm. For the same compound, the “Dv 0.1” value ([2]; spraying time 180 min) was 0.9 μm, the “Dv 0.5” value ([2]; spraying time 180 min) was 2.1 μm and the “Dv 0.9” value ([2]; spraying time 180 min) was 4.5 μm.
In the case of CC(C)(C)NC(=O)[C@@H]1C[C@@H]2CCCC[C@@H]2CN1C[C@@H](O)[C@H](Cc1ccccc1)NC(=O)[C@H](CC(N)=O)NC(=O)c1ccc2ccccc2n1 [Saquinavir], the solubility [1, 6] is reported as less than 1 mg/mL, the solubility ([1]; organic solvent or mixture, dimethyl ether, 25° C./100 bar, read-out: solubility (DME)) is reported as greater than 100 mg/mL and the “Dv 0.1” value ([3]; pressure 50 bar) is reported as 0.5 μm. The “Dv 0.5” value ([3]; pressure 50 bar) was 3.8 μm, the “Dv 0.9” value ([3]; pressure 50 bar) was 6.4 μm and the “Dv 0.1” value ([3]; pressure 200 bar) was 0.9 μm. The “Dv 0.5” value ([3]; pressure 200 bar) was 1.5 μm, the “Dv 0.9” value ([3]; pressure 200 bar) was 2.4 μm and the “Dv 0.1” value ([3]; pressure 280 bar) was 0.4 μm. The “Dv 0.5” value ([3]; pressure 280 bar) was 0.8 μm, the “Dv 0.9” value ([3]; pressure 280 bar) was 1.7 μm and the “Dv 0.1” value [3, 8] was 1.0 μm. For the same compound, the “Dv 0.5” value [3, 8] was 2.1 μm, the “Dv 0.9” value [3, 8] was 4.5 μm and the “Dv 0.1” value ([4]; surfactant Aerosol OT, DME) was 0.9 μm. The “Dv 0.5” value ([4]; surfactant Aerosol OT, DME) was 1.5 μm, the “Dv 0.9” value ([4]; surfactant Aerosol OT, DME) was 2.4 μm and the “Dv 0.1” value [4, 9] was 0.7 μm. The “Dv 0.5” value [4, 9] was 1.4 μm, the “Dv 0.9” value [4, 9] was 3.0 μm and the Poly [5] was 0.031. It also gave a ZAve [5] of 254.7.
